Literature values, collected in US20040101549A1, “Treatments” (priority 2002, published 2004).

Substance: polyestradiol phosphate [PEP]
- overall and cardiovascular mortality versus maximum androgen blockade (915 patients randomized, over 6 years, Hedlund & Henriksson): equivalent
- long-term cardiovascular protection (epidemiological comparison to an age-standardized population, Aro): significant long-term cardiovascular protection
- reduction of short-term cardiovascular morbidity (intramuscular, first line CaP therapy, Mikkola et al): over 90%
